Here are results for 19 molecules from patent publication US11078161B2, “Rock-inhibiting compound and uses thereof” (HITGEN INC., priority 2017, dated 2021).

In experiment [1] the target is ROCK2 (Homo sapiens, UniProt O75116). Kind of experiment: Measurement of inhibitory activity against ROCK2 (ADP-Glo, S6K substrate). The note with it: read-out: ROCK2 (IC50 class). It is filed as biochemical. From the text: ROCK2 was capable of phosphorylating a substrate of polypeptide S6K (KRRRLASLR) by converting ATP to ADP. An ADP-Glo™ reagent was adopted to terminate this reaction and consume the remaining ATP. Moreover, a kinase detection reagent was introduced to ensure that ATP was further converted into a luminescent signal by an Ultra-Glo™ luciferase while convening ADP into ATP, allowing the kinase activity to be positively correlated with the intensity of the luminescent signal.
The inhibitory activity against ROCK2 was determined as follows.
(1) A detection buffer containing 40 mM Tris (pH 7.5), 20 mM MgCl2, 0.1% BSA(w/v) and 50 μM DTT was prepared.
(2) 12 μL of 2.5×0.1 μg/mL ROCK2 solution was added to a 96-well PCR plate.
(3) The 96-well PCR plate was added with 6 μL of a 6× compound solution and pre-incubated at 25° C. for 10 min.
(4) Then the 96-well PCR plate was further added with 12 μL of a mixed solution of a 2.5×37.5 μg/mL S6K substrate solution and a 12.5 μM ATP solution, and incubated at 30° C. for 60 min.
(5) 25 μL of the reaction mixture was transferred to a new 96-well PCR plate, mixed with 25 μL of the ADP-Glo™ reagent uniformly and incubated at 25° C. for 40 min to terminate the reaction.
(6) After the reaction was terminated, 40 μL of the reaction mixture was transferred to another 96-well PCR plate, mixed with 40 μL of the kinase detection reagent uniformly and incubated at 25° C. for 40 min.
(7) The luminescence signal was recorded for the calculation of the inhibitory rate.
The inhibitory activity of the above-prepared compounds against the ROCK2 was measured according to the above process, and the results were shown in Table 1, in which the compounds were ranked according to the IC50 value. Specifically, “+” indicated an IC50 value greater than 500 nM; “++” indicated an IC50 value less than 500 nM and greater than 100 nM; and “+++” indicated an IC50 value less than 100 nM.

The test system of experiment [2] is phosphorylation of the myosin light chain (T18/S19) of smooth muscle cells A7r5. Kind of experiment: Detection of myosin light chain phosphorylation by In-Cell Western Blotting. It is filed as cell-based. Particulars: rat smooth muscle cells A7r5, 1 h incubation in serum-free medium; read-out: A7r5 (IC50 class, inhibition of myosin light chain phosphorylation). Here is the method: ROCK2 was capable of altering the cytoskeleton by phosphorylating two amino acid sites (T18 and S19) on the myosin light chain. Smooth muscle cells A7r5 of rats were selected, inoculated into a 96 well black plate with a transparent bottom and cultured with DMEM containing 10% FBS. After cultured overnight, the cells were treated by serum starvation for 4 h and then incubated with respective compounds in serum-free medium for 1 h. The phosphorylation level of the myosin light chain was detected by In-Cell Western Blotting using a phspho-MLC-T18/S19-specific antibody and a secondary detection antibody. The untreated cells were used as positive control; the cells without undergoing primary antibody incubation were used as negative control; and total intracellular protein was used as an internal reference. The results were fitted by a non-linear regression curve with varying slope using GraphPad Prism 5.01 software to determine an IC50 value.
The detection of the inhibitory activity of the above-prepared compounds against the phosphorylation of the myosin light chain of smooth muscle cells A7r5 was performed according to the above process. The results were shown in Table 2, where the compounds were ranked according to the IC50 value.

Experiment [3] relates to New Zealand rabbits with normal intraocular pressure. Kind of experiment: Animal experiment, normal intraocular pressure model. It is filed as in vivo. Particulars: normal IOP rabbits, 50 μL to the right eye, IOP at 0-10 h. On the procedure:
24 male New Zealand rabbits were averagely divided into 4 groups, and were randomly assigned to respective groups using a computer randomized algorithm involving weight. From […] before the experiment, all rabbits were required to be trained to adapt to the operation of intraocular pressure (IOP) measurement, and the training was performed 3 times a day with an interval of about 3 h. The intraocular pressure was measured using a TonoVet tonometer, specifically, individual animals were fixed and the eye to be tested was placed at a position perpendicular to the TonoVet tonometer. The IOP should be measured at least 3 times in each operation until the reading became stable. The results from the last three stable measurements (±3 mmHg) were recorded and averaged to be used as the final IOP value. Respective compounds were weighed and dissolved with normal saline to the desired concentration. At the beginning of the experiment, individual compounds of the invention, reference compound K115 or negative control solvent (50 μL) were administered to the right eye of each animal, and the left eye of each animal was treated by normal saline. The IOP was measured at time points Pre (0 h), 1 h, 2 h, 4 h, 6 h, 8 h and 10 h after the administration of drugs, and the data obtained at respective time points was analyzed by student-t test. The curve of IOP over time was analyzed using the ANOVA test, where a P value of less than 0.05 will be considered to be of statistical significance and the data was expressed by mean±standard deviation.

Experiment [4] has as its system New Zealand rabbits with high intraocular pressure. Kind of experiment: Animal experiment, high intraocular pressure monocular model. The note with it: high IOP rabbits, 50 μL per eye three times a day (0, 3rd, 6th h), IOP at 0-8 h. Type of experiment: in vivo. On the procedure:
10 male New Zealand rabbits were averagely divided into 2 groups and were randomly assigned to respective groups using a computer randomized algorithm involving weight. From 3 days to 1 day before the experiment, all rabbits were required to be trained to adapt to the operation of intraocular pressure (IOP) measurement, and the training was performed 3 times a day with an interval of about 3 h. The intraocular pressure was measured using a TonoVet tonometer, specifically, individual animals were fixed and the eye to be tested was placed at a position perpendicular to the TonoVet tonometer. The IOP should be measured at least 3 times in each operation until the reading became stable. The results from the last three stable measurements (±3 mmHg) were recorded and averaged to be used as the final IOP value. Respective compounds were weighed and dissolved with normal saline to the desired concentration. Before the induction of high intraocular pressure, the intraocular pressure values of both eyes were measured and used as the basic intraocular pressure value. […] The IOP was measured respectively 0, 1, 2, 3, 4, 6 and 8 h after the injection. The results obtained at individual time points were analyzed by student-t test, and the variation curve of IOP over time was analyzed using ANOVA test. […]

For experiment [5], the system named is hypertensive model rats. The note with it: cited from earlier work.

Bounds are passed on as bounds.

Chain of ROCK2 (O75116 whole entry): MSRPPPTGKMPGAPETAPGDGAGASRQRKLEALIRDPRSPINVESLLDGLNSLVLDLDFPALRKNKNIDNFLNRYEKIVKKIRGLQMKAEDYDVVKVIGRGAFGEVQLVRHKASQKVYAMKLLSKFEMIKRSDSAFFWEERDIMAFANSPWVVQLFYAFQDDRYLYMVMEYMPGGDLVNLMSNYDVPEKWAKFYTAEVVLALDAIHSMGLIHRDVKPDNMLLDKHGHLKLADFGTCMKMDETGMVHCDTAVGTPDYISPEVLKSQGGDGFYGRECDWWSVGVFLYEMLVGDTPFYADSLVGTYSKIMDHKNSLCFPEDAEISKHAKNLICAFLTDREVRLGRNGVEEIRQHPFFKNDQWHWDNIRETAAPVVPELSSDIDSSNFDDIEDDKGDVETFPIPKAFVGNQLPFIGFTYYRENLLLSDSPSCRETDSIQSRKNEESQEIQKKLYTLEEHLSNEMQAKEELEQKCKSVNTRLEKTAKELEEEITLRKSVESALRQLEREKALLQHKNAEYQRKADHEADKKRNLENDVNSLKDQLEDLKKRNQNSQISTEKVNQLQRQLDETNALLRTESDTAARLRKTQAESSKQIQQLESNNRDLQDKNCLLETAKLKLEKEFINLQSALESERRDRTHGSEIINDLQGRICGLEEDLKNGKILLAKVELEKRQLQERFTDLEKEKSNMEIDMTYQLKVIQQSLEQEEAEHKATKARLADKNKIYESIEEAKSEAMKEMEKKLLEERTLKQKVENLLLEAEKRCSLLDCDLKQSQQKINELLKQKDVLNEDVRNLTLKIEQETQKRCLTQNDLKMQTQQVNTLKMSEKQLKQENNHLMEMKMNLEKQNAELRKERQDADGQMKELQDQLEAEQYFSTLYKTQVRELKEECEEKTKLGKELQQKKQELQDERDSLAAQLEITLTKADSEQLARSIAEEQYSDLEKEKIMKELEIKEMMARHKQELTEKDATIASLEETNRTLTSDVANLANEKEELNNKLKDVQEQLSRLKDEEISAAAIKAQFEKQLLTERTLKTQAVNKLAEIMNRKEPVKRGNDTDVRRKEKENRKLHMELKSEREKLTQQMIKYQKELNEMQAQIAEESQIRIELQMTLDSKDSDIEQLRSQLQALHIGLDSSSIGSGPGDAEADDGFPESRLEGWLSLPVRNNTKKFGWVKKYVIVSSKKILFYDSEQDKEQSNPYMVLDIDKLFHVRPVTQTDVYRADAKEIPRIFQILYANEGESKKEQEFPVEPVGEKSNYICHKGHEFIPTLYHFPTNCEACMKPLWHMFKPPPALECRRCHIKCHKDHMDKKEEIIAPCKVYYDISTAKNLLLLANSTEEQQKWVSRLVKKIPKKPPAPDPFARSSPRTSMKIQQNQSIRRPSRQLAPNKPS

With `NC[C@@H](NC(=O)c1ccc2cnccc2c1)c1ccccc1` [Compound 1, N—((S)-2-amino-1-phenyl-ethyl)isoquinoline-6-carboxamide], the values for the half-maximal inhibitory concentration (IC50) in experiment [1] and in experiment [2] were below 100 nM and 250 to 1000 nM, respectively.

On to `NC[C@@H](NC(=O)c1ccc2cnccc2c1)c1cccc(Br)c1` [Compound 2, (S)—N-(2-amino-1-(3-bromophenyl)ethyl)isoquinoline-6-carboxamide], for which the concentration for half-maximal inhibition (IC50) in experiment [1] was below 100 nM; in experiment [2], below 250 nM.

Consider `NC[C@@H](NC(=O)c1ccc2cnccc2c1)c1ccc(CO)cc1` [Compound 3, (S)—N-(2-amino-1-(4-(hydroxymethyl)phenyl)ethyl)isoquinoline-6-formamide], for which the concentration for half-maximal inhibition (IC50) in experiment [1] lay within 100 to 500 nM.

Take `Cc1ccc(C(=O)OCc2ccc([C@@H](CN)NC(=O)c3ccc4cnccc4c3)cc2)c(C)c1` [Compound 4, (S)-4-(2-amino-1-(isoquinoline-6-formamido)ethyl)benzyl 2,4-dimethylbenzoate]: the IC50 in experiment [1] was 100 to 500 nM; in experiment [2] it was above 1000 nM.

On to `CN(C)C[C@@H](NC(=O)c1ccc2cnccc2c1)c1ccccc1` [Compound 5, N-((1S)-2-(dimethylamino)-1-phenyl-ethyl)isoquinoline-6-formamide], for which the IC50 in experiment [1] was below 100 nM. Moreover, in experiment [3], the “acting time compared to K115” value is listed as “a longer acting time” and the “intraocular pressure-reducing activity compared to K115” value is “a similar intraocular pressure-reducing activity”. In addition, the IC50 in experiment [2] lay in the range of 250 to 1000 nM.

For `NCCC(NC(=O)c1ccc2cnccc2c1)c1cccc(Cl)c1` (stereo not shown) [Compound 6, N-(3-amino-1-(3-chlorophenyl)propyl)isoquinoline-6-carboxamide], the results for the concentration for half-maximal inhibition (IC50) in experiment [1] and in experiment [2] were below 100 nM and below 250 nM, respectively.

For `CCOC(=O)c1cc(-c2cccc(C(CCN)NC(=O)c3ccc4cnccc4c3)c2)cs1` (stereo not shown) [Compound 7, ethyl 4-(3-(3-amino-1-(isoquinoline-6-formamide)propyl)phenyl)thiophene-2-carboxylate], the half-inhibitory concentration (IC50) was below 100 nM in experiment [1] and 250 to 1000 nM in experiment [2].

Turning to `CN(C)CCC(NC(=O)c1ccc2cnccc2c1)c1ccccc1` (stereo not shown) [Compound 8, N-(3-(dimethylamino)-1-phenyl-propyl)isoquinoline-6-formamide], the figures for the concentration for half-maximal inhibition (IC50) in experiment [1] and in experiment [2] were below 100 nM and above 1000 nM, respectively.

`O=C(NC(c1ccccc1)C1CNC1)c1ccc2cnccc2c1` (stereo not shown) [Compound 9, N-(azetidin-3-yl-benzyl)isoquinoline-6-carboxamide]: the figures for the IC50 in experiment [1] and in experiment [2] were below 100 nM and 250 to 1000 nM, respectively.

For `CN1CC(C(NC(=O)c2ccc3cnccc3c2)c2ccccc2)C1` (stereo not shown) [Compound 10, N-((1-methylazetidin-3-yl)-benzyl)isoquinoline-6-carboxamide], the 50% inhibitory concentration (IC50) in experiment [1] is below 100 nM; in experiment [2] it was 250 to 1000 nM.

On to `O=C(N[C@H](c1ccccc1)[C@@H]1CCNC1)c1ccc2cnccc2c1` [Compound 11a, N—((S)-phenyl-((R)-pyrrolidin-3-yl)methyl)isoquinoline-6-carboxamide], for which, in experiment [1], the half-inhibitory concentration (IC50) is below 100 nM. Besides, the “effect on alleviating high intraocular pressure” value in experiment [4] is given as “a good effect on alleviating high intraocular pressure”. In addition, in experiment [3], the “acting time compared to K115” value was “a longer acting time” and the “intraocular pressure-reducing activity compared to K115” value is “a similar intraocular pressure-reducing activity”. The half-maximal inhibitory concentration (IC50) in experiment [2] was in the range of 250 to 1000 nM.

Consider `O=C(N[C@@H](c1ccccc1)[C@@H]1CCNC1)c1ccc2cnccc2c1` [Compound 11b, N—((R)-phenyl-((R)-pyrrolidin-3-yl)methyl)isoquinoline-6-carboxamide], for which, in experiment [1], the IC50 is below 100 nM.

On to `CN1CC[C@@H]([C@@H](NC(=O)c2ccc3cnccc3c2)c2ccccc2)C1` [Compound 12, N—((R)—((R)-1-methylpyrrolidin-3-yl)(phenyl)methyl)isoquinoline-6-carboxamide], for which the IC50 in experiment [1] is below 100 nM.

In the case of `CN1CC[C@@H]([C@H](NC(=O)c2ccc3cnccc3c2)c2ccccc2)C1` [Compound 13, N—((S)—((R)-1-methylpyrrolidin-3-yl)(phenyl)methyl)isoquinoline-6-carboxamide], the concentration for half-maximal inhibition (IC50) was below 100 nM in experiment [1] and 250 to 1000 nM in experiment [2].

Turning to `O=C(N[C@H](c1ccccc1)[C@H]1CCNC1)c1ccc2cnccc2c1` [Compound 14a, N—((S)-phenyl-((S)-pyrrolidin-3-yl)methyl)isoquinoline-6-carboxamide], in experiment [1], the IC50 fell in the range of 100 to 500 nM.

Take `O=C(N[C@@H](c1ccccc1)[C@H]1CCNC1)c1ccc2cnccc2c1` [Compound 14b, N—((R)-phenyl-((S)-pyrrolidin-3-yl)methyl)isoquinoline-6-carboxamide]: in experiment [1], the IC50 is below 100 nM.

Take `COc1cccc([C@@H](CN(C)C)NC(=O)c2ccc3cnccc3c2)c1` [Compound 15, N—((S)-2-(dimethylamino)-1-(3-methoxyphenyl)ethyl)isoquinoline-6-carboxamide]: the 50% inhibitory concentration (IC50) in experiment [1] is below 100 nM; in experiment [2], 250 to 1000 nM.

On to `CN(C)C[C@@H](NC(=O)c1ccc2cnccc2c1)c1cccc(Cl)c1` [Compound 16, N—((S)-2-(dimethylamino)-1-(3-chlorophenyl)ethyl)isoquinoline-6-carboxamide], for which the IC50 in experiment [2] was in the range of 250 to 1000 nM.

Turning to `C[C@@H](N)[C@H]1CC[C@H](C(=O)Nc2ccncc2)CC1` [Compound Y-27632], the “blood pressure of control rats” value in experiment [5] (control rats) is recorded as “fails to show significant effects on the blood pressure”. Moreover, the “blood pressure of hypertensive model rats” value in experiment [5] (spontaneous, renal and deoxycorticosterone acetate-induced hypertension) is recorded as “significantly lowering the blood pressure”.
